Legend:
Assay in all cases: Kinase panel enzymatic inhibition assay (Nanosyn)
Assay type in all cases: biochemical
PLK1 = target: T1, PLK1 (Homo sapiens, UniProt P53350); settings: ATP at Km; 30-minute pre-incubation; read-out: kinase inhibition in terms of IC50, PLK1
T1 construct: Nanosyn (contract laboratory that ran the panel)
In short: (§1)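 Enzymatic inhibition measured within a panel of at least 300 kinases, using a validated format such as Caliper LabChip mobility shift, ADP detection or time-resolved fluorescence. Compounds tested at 5 μM with ATP at each kinase's Km, after a 30-minute pre-incubation. Values given as percent inhibition or IC50.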

PLK4 = target: T2, PLK4 (Homo sapiens, UniProt O00444); settings: ATP at Km; 30-minute pre-incubation; read-out: kinase inhibition in terms of IC50, PLK4
T2 construct: Nanosyn (contract laboratory that ran the panel)
T2 sequence (O00444 1-970): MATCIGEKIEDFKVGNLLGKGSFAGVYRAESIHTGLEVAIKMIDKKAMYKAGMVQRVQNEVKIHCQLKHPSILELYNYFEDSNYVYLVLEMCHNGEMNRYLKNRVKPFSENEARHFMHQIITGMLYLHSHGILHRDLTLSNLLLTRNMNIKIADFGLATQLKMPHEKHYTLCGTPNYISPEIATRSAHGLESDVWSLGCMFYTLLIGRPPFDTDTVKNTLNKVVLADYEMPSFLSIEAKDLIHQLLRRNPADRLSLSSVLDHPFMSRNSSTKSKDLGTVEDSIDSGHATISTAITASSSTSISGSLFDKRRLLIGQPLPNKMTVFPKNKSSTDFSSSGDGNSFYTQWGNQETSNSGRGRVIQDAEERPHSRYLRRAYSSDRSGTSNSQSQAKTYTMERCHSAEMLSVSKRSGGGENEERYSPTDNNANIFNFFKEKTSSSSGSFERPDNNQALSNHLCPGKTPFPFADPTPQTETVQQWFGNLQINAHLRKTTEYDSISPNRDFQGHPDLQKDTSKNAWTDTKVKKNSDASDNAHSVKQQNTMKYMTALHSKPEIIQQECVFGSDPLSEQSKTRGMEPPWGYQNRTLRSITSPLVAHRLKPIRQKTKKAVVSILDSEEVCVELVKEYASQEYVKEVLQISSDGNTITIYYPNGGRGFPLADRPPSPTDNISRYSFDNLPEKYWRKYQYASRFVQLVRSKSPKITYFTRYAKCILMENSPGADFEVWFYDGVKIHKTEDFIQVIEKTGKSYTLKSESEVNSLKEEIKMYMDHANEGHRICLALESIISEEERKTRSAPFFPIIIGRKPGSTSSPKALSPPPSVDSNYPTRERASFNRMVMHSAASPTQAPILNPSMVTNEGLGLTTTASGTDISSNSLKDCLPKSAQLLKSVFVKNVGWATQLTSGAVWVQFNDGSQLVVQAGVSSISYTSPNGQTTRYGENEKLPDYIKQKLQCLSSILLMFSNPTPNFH
In short: as §1

MER = target: T3, MER (Homo sapiens, UniProt Q12866); settings: ATP at Km; 30-minute pre-incubation; read-out: kinase inhibition in terms of IC50, MER
T3 construct: Nanosyn (contract laboratory that ran the panel)
T3 sequence (Q12866 21-999): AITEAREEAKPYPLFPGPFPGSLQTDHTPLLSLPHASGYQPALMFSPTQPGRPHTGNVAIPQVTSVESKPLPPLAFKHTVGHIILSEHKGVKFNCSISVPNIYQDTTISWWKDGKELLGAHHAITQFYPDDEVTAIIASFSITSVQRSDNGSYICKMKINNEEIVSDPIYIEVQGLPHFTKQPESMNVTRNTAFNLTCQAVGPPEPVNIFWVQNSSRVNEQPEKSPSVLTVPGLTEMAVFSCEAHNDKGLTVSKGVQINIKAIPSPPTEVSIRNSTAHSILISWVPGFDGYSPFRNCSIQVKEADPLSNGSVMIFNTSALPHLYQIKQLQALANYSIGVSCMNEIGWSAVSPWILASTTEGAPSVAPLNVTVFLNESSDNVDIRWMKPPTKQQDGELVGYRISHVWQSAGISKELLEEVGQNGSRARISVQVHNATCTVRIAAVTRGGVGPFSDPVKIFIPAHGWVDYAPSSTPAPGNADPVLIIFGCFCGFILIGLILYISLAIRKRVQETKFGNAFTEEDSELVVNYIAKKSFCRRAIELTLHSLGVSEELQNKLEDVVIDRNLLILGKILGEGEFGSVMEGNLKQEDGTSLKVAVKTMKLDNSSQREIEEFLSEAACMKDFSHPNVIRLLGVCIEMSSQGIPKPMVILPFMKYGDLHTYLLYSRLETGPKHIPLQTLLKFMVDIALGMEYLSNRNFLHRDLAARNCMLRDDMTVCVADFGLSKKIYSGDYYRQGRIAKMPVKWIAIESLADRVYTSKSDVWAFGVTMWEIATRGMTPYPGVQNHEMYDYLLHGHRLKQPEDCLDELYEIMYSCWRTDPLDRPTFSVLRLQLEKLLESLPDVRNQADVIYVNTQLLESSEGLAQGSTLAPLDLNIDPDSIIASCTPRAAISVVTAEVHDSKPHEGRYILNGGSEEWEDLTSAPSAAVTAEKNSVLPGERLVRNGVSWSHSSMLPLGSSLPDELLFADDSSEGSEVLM
In short: as §1

TAK1-TAB1 = target: T4, TAK1-TAB1 (Homo sapiens, UniProt O43318); settings: ATP at Km; 30-minute pre-incubation; read-out: kinase inhibition in terms of IC50, TAK1-TAB1
T4 construct: purchased Nanosyn
T4 sequence (O43318 with tags, fused parts or gaps limits assumed): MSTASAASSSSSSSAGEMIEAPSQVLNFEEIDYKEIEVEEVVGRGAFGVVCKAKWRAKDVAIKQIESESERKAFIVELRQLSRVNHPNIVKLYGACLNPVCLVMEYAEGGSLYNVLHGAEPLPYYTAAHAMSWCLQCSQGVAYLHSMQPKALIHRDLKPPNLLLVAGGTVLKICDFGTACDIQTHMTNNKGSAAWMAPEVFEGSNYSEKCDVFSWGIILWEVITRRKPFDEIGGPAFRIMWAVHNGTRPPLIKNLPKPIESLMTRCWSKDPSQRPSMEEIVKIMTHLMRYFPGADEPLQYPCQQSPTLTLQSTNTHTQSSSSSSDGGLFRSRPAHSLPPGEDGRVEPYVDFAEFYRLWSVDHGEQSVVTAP
In short: as §1

T1 sequence (P53350 whole entry): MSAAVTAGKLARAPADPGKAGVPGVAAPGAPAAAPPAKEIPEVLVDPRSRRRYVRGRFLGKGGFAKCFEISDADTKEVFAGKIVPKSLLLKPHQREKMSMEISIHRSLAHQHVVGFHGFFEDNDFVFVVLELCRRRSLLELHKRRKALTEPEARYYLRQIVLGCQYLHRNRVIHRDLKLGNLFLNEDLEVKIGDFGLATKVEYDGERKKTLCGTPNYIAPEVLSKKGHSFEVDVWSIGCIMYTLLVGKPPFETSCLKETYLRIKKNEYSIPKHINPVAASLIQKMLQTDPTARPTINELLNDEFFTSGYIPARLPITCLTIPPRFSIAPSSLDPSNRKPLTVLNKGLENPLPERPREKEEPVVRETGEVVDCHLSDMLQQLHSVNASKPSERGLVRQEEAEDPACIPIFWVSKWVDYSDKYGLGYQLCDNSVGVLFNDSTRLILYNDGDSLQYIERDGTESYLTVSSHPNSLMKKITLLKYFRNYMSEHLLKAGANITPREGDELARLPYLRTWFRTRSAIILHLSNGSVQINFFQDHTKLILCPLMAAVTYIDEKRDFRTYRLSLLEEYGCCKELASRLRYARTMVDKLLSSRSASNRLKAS

| IC50 (PLK1) [nM] | IC50 (PLK4) [nM] | IC50 (MER) [nM] | IC50 (TAK1-TAB1) [nM] | SMILES |
| --- | --- | --- | --- | --- |
| ≥ 10000 | 1000 to 10000 | < 500 | ≥ 10000 | COc1cc2nccc(Oc3ccc(NC(=O)c4cc(S(C)(=O)=O)n(-c5ccc(F)cc5)n4)c(F)c3)c2cc1OC [Ex71, N-(4-((6,7-dimethoxyquinolin-4-yl)oxy)-2-fluorophenyl)-1-(4-fluorophenyl)-5-(methylsulfonyl)-1H-pyrazole-3-carboxamide] |
| ≥ 10000 | 500 to 1000 | 500 to 1000 | ≥ 10000 | COc1cc2nccc(Oc3ccc(NC(=O)c4cc(S(C)(=O)=O)n(-c5ccc(F)cc5)n4)cc3)c2cc1OC [Ex72, N-(4-((6,7-dimethoxyquinolin-4-yl)oxy)phenyl)-1-(4-fluorophenyl)-5-(methylsulfonyl)-1H-pyrazole-3-carboxamide] |
| ≥ 10000 | < 500 | < 500 | ≥ 10000 | COc1cc2nccc(Oc3ccc(NC(=O)c4cc(S(C)(=O)=O)n(-c5ccc(F)cc5)n4)cc3F)c2cc1OC [Ex73, N-(4-((6,7-dimethoxyquinolin-4-yl)oxy)-3-fluorophenyl)-1-(4-fluorophenyl)-5-(methylsulfonyl)-1H-pyrazole-3-carboxamide] |
